Test results reported in patent US20240391923A1, “METHIONINE ADENOSYLTRANSFERASE 2A INHIBITOR FOR TREATING MTAP DELETION-TYPE CANCER” (SUZHOU GENHOUSE BIO CO., LTD., priority 2022, published 2024).

Tests used:
[1] = target: T1, PXR (Homo sapiens, UniProt O75469); test: PXR activation test in stably transfected DPX2 cells; assay type: cell-based; conditions: for PXR activation fold (10 μM) / PXR activation fold (30 μM): DPX2 cells, 48 h; for activation activity on PXR at 30 μM (in words): summary of Table 10
T1 construct: host or cells: DPX2 cells
T1 sequence (O75469 1-434): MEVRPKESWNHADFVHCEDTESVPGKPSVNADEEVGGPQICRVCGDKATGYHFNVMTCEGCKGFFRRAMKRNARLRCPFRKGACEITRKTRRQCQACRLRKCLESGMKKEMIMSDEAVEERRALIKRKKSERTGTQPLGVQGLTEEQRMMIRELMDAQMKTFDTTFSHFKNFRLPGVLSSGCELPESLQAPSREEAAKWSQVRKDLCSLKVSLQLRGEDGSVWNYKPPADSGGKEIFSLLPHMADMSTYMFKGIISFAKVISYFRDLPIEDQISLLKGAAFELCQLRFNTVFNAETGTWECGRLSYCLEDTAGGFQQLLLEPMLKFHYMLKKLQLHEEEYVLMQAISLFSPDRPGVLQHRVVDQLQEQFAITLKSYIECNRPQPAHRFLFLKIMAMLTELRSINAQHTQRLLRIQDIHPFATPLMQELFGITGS
Method: In this example, the compound was tested for PXR activation.
100 μL of stably transfected DPX2 cells were seeded per well of a 96-well cell culture plate (4.5×10^5 cells/mL in Puracyp medium), followed by placing the 96-well plate in a 37° C. incubator. After 24 h, the 96-well plate was taken out from the incubator, the medium was replaced with 100 μL of the test compound (at a final concentration of 10 μM and 30 μM), positive control compound rifampicin (at a final concentration of 10 μM), and the DMSO treatment group (at a final concentration of 0.1%), and 3 replicate wells were set. The test plate was placed back into the incubator. After 24 h, the medium was replaced with the freshly prepared test compound and rifampicin solution, and the test plate was again placed back into the incubator. After the compound was treated for 48 h, the test plate was taken out from the incubator. The medium in the wells was discarded, the plate was washed twice with PBS, 50 μL of medium containing 1×CellTiter-Fluor™ Cell Viability Assay reagent was added, and the mixture was incubated at 37° C. for 30 min. The test plate was taken out and equilibrated to room temperature, and the fluorescence signal under the conditions of 400 nm excitation light/505 nm emission light was detected by a microplate reader.
Subsequently, 50 μL of medium containing ONE-Glo Assay reagent was added to each well, and the plate was shaken, mixed well, and incubated at room temperature for 5 min. Chemiluminescence was detected by a microplate reader. The data was analyzed to evaluate the PXR activation of the test compound.

[2] = Metabolic stability test in hepatocytes, human; assay type: in vitro ADME; conditions: hepatocytes (suspension), Table 5: metabolic stability in hepatocytes, up to 90 min, read-out: Metabolic half-life in human liver microsome (T½, min)
Method: This experimental example was used to test the metabolic stability of the compounds in hepatocytes.
A suspension of hepatocytes was prepared at 0.5×10^6/mL with a pre-heated medium, then 198 μL of the pre-heated cell suspension was added to a 96-well plate. To each well of the 96-well plate, 2 μL of the test compound was added so that the final concentration was 1 μM, and 2 replicate wells were set. For the T=0 min sample, the compound was mixed well with the cells for 1 min, then […] was immediately added to 125 μL of a stop solution (an acetonitrile solution containing 200 ng/mL tolbutamide and 200 ng/mL labetalol) under an ice bath and mixed well. At the same time, all the plates were placed in an incubator at 37° C. with 5% CO2, with the shaker set at 600 rpm. The sample was mixed well at 15, 30, 60, and 90 min of incubation, respectively, and 25 μL of the sample was added to 125 μL of a stop solution (an acetonitrile solution containing 200 ng/mL tolbutamide and 200 ng/mL labetalol) under an ice bath, mixed well, and shaken at 500 rpm for 10 min. Subsequently, the plate was centrifuged for 20 min at 3220×g at 4° C. […] Subsequently, analysis was carried out using LC-MS/MS, and intrinsic clearance (CLint) and half-life (T½) were calculated.

[3] = tested on: Human pancreatic cancer cells KP-4; test: Mouse xenograft tumor pharmacodynamic model, KP-4; assay type: in vivo; conditions: KP-4 xenograft, 29 days of administration
Method: In this example, the in vivo efficacy of the compound in a mouse xenograft tumor model after intragastric (PO) administration was tested.
Human pancreatic cancer cells KP-4 were cultured in monolayer in vitro under the condition of 1640 medium containing […] and […] and streptomycin, and the culture was carried out at 37° C. with 5% CO2. The cells were digested with trypsin three times a week for passaging. When the saturation degree of the cells was 80-90%, the cells were collected, counted and inoculated. 0.1 mL (5×10^6 cells) of KP-4 cells were subcutaneously inoculated on the right back of each mouse. On day 34 after inoculation of the cells, the mean tumor volume reached 154 mm^3. The mice were randomly grouped for administration and intragastrically dosed once daily. Changes in body weight and tumor volume were recorded. After 29 days of administration, the experiment was ended. Tumor volume changes and mouse body weight changes were counted and analyzed. AG270 (CAS: 2201056-66-6) was the positive control compound.

Cn1cc2c(n1)c(=O)n(-c1cccc3[nH]ncc13)c1cc(Cl)ccc21 [Compound B60]
PXR activation fold (10 μM) [1]: 7.06 fold | PXR activation fold (30 μM) [1]: 21.71 fold

O=c1c2n[nH]cc2c2ccc(C(F)(F)F)nc2n1-c1cccnc1 [Compound B178]
PXR activation fold (10 μM) [1]: 7.47 fold | PXR activation fold (30 μM) [1]: 34.49 fold

Cn1cc2c(n1)c(=O)n(-c1cccc3[nH]ncc13)c1nc(C(F)(F)F)ccc21 [Compound B181]
half-life at 1 μM [2]: > 217 min | activation activity on PXR at 30 μM (in words) [1]: very weak | PXR activation fold (10 μM) [1]: 3.63 fold | PXR activation fold (30 μM) [1]: 3.77 fold

Cn1cc2c(n1)c(=O)n(-c1cccc3[nH]ncc13)c1cc(Cl)c(F)cc21 [Compound B257]
activation activity on PXR at 30 μM (in words) [1]: very weak | PXR activation fold (10 μM) [1]: 3.37 fold | PXR activation fold (30 μM) [1]: 7.87 fold | Tumor growth inhibition percentage (TGI) ([3]; PO 0.3 mg/kg once a day): once a day TGI = 66.25% | Tumor growth inhibition percentage (TGI) ([3]; PO 1 mg/kg once a day): once a day TGI = 90.06% | Tumor growth inhibition percentage (TGI) ([3]; PO 3 mg/kg once a day): once a day TGI = 97.08%

Cn1cc2c(n1)c(=O)n(-c1cccnc1C1CC1)c1cc(Cl)c(F)cc21 [Compound B340]
half-life at 1 μM [2]: > 217 min
